Data as given in US9597407B2, “Targeted antimicrobial moieties” (C3 Jian, Inc., priority 2009, dated 2017).
Entries after “also recorded” stand apart in the source; their conditions may differ. Ends that are not written are not given here.

Assays:
[1] = test system: microorganisms; test: Peptide activities: binding, antimicrobial, growth or phenotype altering (Table 8)
Description: In certain embodiments, peptides described herein can have multiple activities. Thus for example, a peptide can have both binding/targeting activity and antimicrobial activity. Such peptides can be used, e.g., in a chimeric construct, for any or all of these properties. Thus, for example, a peptide designated “B” in Table 8 can be used as a targeting peptide. If it is also designated G or M it can also be used for antimicrobial activity.

[2] = test system: bacteria; test: Binding of targeting peptides to microorganisms (Table 3); conditions: peptide binding in aqueous buffers that varied depending on peptide solubility; preferably 1x PBS
[3] = test system: microorganisms; test: Morphology, biofilm and growth disruption by peptides (Table 5); assay type: cell-based; parameters: key: A: Peptide aggregates; B: Less hyphal formation; Clumps; Diffuse clumps and small polyps; F: Diffuse growth; H: Thin; I: Growth inhibition; Microcolony formation; Rippled; Small polyps; Thick; W: Halo formation on top, microlonies on bottom
Description: In certain embodiments peptides that induce alterations in phenotype or other biological activities can also be used as antimicrobial effector moieties.

Substance | Activities [1] | Target(s) (microorganisms bound by the targeting peptide) [2] | Organism, effect (morphology, biofilm and growth disruption) ([3]; E. coli) | Organism, effect (morphology, biofilm and growth disruption) ([3]; E. faecalis) | Organism, effect (morphology, biofilm and growth disruption) ([3]; MRSA) | Organism, effect (morphology, biofilm and growth disruption) ([3]; S. epidermidis) | Organism, effect (morphology, biofilm and growth disruption) ([3]; S. pneumoniae) | Organism, effect (morphology, biofilm and growth disruption) ([3]; C. jejuni) | Organism, effect (morphology, biofilm and growth disruption) ([3]; C. albicans)
PF-452 (MNNWIKVAQISVTVINEVIDIMKEKQNGGK; Peptide with targeting and/or antimicrobial activity) | G B | M. luteus; also recorded: P. aeruginosa; also recorded: C. albicans; also recorded: S. pneumoniae; also recorded: E. faecalis; also recorded: C. jeikeium; also recorded: M. smegmatis | E. coli (C) | E. faecalis (C) | MRSA (C) | S. epidermidis (C) | S. pneumoniae (R) | – | –
PF-453 (IIQDIAHAFGY; Peptide with targeting and/or antimicrobial activity) | G B | M. luteus; also recorded: E. coli; also recorded: P. aeruginosa; also recorded: S. pneumoniae; also recorded: E. faecalis; also recorded: C. jeikeium; also recorded: C. jejuni | E. coli (C) | – | MRSA (C) | S. epidermidis (C) | S. pneumoniae (C) | – | –
PF-456 (TCVKPRTIN; Peptide with targeting and/or antimicrobial activity) | G B | C. albicans and MRSA and E. faecalis and C. jeikeium and C. jejuni | – | E. faecalis (A) | – | – | – | C. jejuni (A) | –
PF-457 (INKYHHIA; Peptide with targeting and/or antimicrobial activity) | G B | C. albicans; also recorded: S. pneumoniae; also recorded: E. faecalis; also recorded: C. jeikeium | – | – | – | – | S. pneumoniae (M) | – | –
PF-459 (EKRMSFNENQSHRPLL; Peptide with targeting and/or antimicrobial activity) | G B | P. aeruginosa | – | – | – | – | S. pneumoniae (H) | – | –
PF-461 (MTLAIKNCSVTKCLGFGDFVNDDSDSYFDA; Peptide with targeting and/or antimicrobial activity) | G B | E. coli; also recorded: S. pneumoniae | – | E. faecalis (A) | MRSA (R) | – | S. pneumoniae (R) | – | –
PF-462 (KNKTDTL; Peptide with targeting and/or antimicrobial activity) | G B | E. faecalis; also recorded: C. jeikeium | – | – | – | – | S. pneumoniae (H) | – | –
PF-464 (VDMVNRFLGN; Peptide with targeting and/or antimicrobial activity) | G B | S. epidermidis and C. albicans and MRSA and S. pneumoniae and E. faecalis and C. jeikeium and C. jejuni | – | – | – | – | S. pneumoniae (S) | – | –
PF-466 (VRKSDQ; Peptide with targeting and/or antimicrobial activity) | G B | MRSA and C. jeikeium and C. jejuni | – | – | – | – | S. pneumoniae (H) | – | –
PF-467 (YYKDYFKEI; Peptide with targeting and/or antimicrobial activity) | G B | MRSA and E. faecalis and C. jeikeium and C. jejuni | – | – | – | – | S. pneumoniae (H) | – | –
PF-470 (PYSDSYATRPHWEQHRAR; Peptide with targeting and/or antimicrobial activity) | G B | M. luteus and E. coli and MRSA and E. faecalis and C. jeikeium and C. jejuni | – | E. faecalis (A) | – | – | – | C. jejuni (A) | –
PF-472 (MHISHLLDEVEQTEREKAVNVLENMNGNVI; Peptide with targeting and/or antimicrobial activity) | G B | S. epidermidis and E. coli and P. aeruginosa and C. albicans and MRSA and S. pneumoniae and E. faecalis and C. jeikeium | – | E. faecalis (A) | MRSA (C) | – | S. pneumoniae (R) | C. jejuni (R) | –
PF-476 (WADAQYKLCENCSE; Peptide with targeting and/or antimicrobial activity) | G B | M. luteus; also recorded: P. mirabilis; also recorded: C. albicans; also recorded: S. pneumoniae; also recorded: E. faecalis; also recorded: C. jeikeium; also recorded: C. jejuni | – | – | – | – | S. pneumoniae (H) | – | –
PF-484 (HKKDIRKQVFKN; Peptide with targeting and/or antimicrobial activity) | G B | S. epidermidis; also recorded: M. luteus; also recorded: P. mirabilis; also recorded: E. coli; also recorded: E. faecalis; also recorded: C. jeikeium; also recorded: C. jejuni | – | E. faecalis (A) | – | – | – | – | –
PF-513 (SNGVGLGVGIGSGIRF-NH2) | G B | C. albicans | – | – | – | – | S. pneumoniae (M) | – | –
PF-514 (QRFYKLFYHIDLTNEQALKLFQVK; Peptide with targeting and/or antimicrobial activity) | G B | S. epidermidis and E. coli and P. aeruginosa and C. albicans and MRSA and S. pneumoniae and E. faecalis and C. jeikeium | E. coli (R) | E. faecalis (C) | – | S. epidermidis (C) | S. pneumoniae (M) | – | –
PF-515 (DKSTQDKDIKQAKLLAQELGL-NH2) | G B | S. epidermidis; also recorded: C. albicans; also recorded: S. pneumoniae; also recorded: C. jeikeium | – | – | – | – | S. pneumoniae (H) | – | –
PF-517 (VKPTMTASLISTVC; Peptide with targeting and/or antimicrobial activity) | G B | C. jejuni | – | – | – | – | S. pneumoniae (M) | – | –
PF-518 (SFYSKYSRYIDNLAGAIFLFF; Peptide with targeting and/or antimicrobial activity) | G B | S. epidermidis and E. coli and P. aeruginosa and C. albicans and MRSA and S. pneumoniae and E. faecalis | E. coli (R) | E. faecalis (C) | MRSA (C) | S. epidermidis (C) | S. pneumoniae (M) | – | –
PF-519 (YLVYSGVLATAAAF-NH2) | G B | M. luteus; also recorded: E. faecalis; also recorded: C. jeikeium | E. coli (R) | E. faecalis (C) | MRSA (C) | – | S. pneumoniae (S) | – | –
PF-528 (LVDVVVLIRRHLPKSCS-NH2) | G B | S. epidermidis and P. aeruginosa and C. albicans and MRSA and S. pneumoniae and E. faecalis | E. coli (H) | – | MRSA (H) | S. epidermidis (H) | S. pneumoniae (R) | – | C. albicans (C)
